Experimental data from US6475991B2, “Use of α-alkylglucosides and α-alkylglucoside esters as anti-microbial an agents” (Ulice, priority 1996, dated 2002).

Experiments:
Format in all cases: cell-based
[1] = test system: Candida albicans, Aspergillus niger; assay: Preservative efficacy test (Pharmacopée Française), fungicidal effect (yeasts and moulds); settings: concentrations of 1% to 3%
Procedure: (§1) The inventors thus tested the bactericidal and/or fungicidal activity of α-alkylglucoside and α-alkylglucoside ester type compounds to determine the conditions, in particular the concentrations, under which said compounds have to be used for the desired activities to be obtained. The results of these tests were analysed in accordance with the “Pharmacopée Françcaise” which describes a methodology for monitoring the efficacy of antimicrobial preservation agents in pharmaceutical preparations and establishes minimum efficacy criteria as a function of the administration routes of a medicine. Thus specific criteria are fixed for topical patent medicines which can be considered to be close to cosmetic products in their conception. The recommended and significant criteria for bactericidal and/or fungicidal activity of a product are:
(§2) for a fungicidal effect (yeasts and moulds) (Candida albicans, Aspergillus niger):
(§3) reduction of one logarithmic unit in 14 days with respect to the initial population;
(§4) no increase in microbial growth after 14 days and up to the 28th day, when the test is stopped.
(§5) In order to facilitate visualisation of the bactericidal or fungicidal effect of the tested compounds, the results obtained were transcribed into the graphical forms of FIG. 5 which show the reduction in the number of germs in logarithmic units, over time (1 day, 7 days, 14 days, 21 days, 28 days).

[2] = test system: Staphylococcus aureus, Pseudomonas aeruginosa, Escherichia coli; assay: Preservative efficacy test (Pharmacopée Française), bactericidal effect
Procedure: as §1
for a bactericidal effect (Staphylococcus aureus, Pseudomonas aeruginosa, Escherichia coli):
reduction of 3 logarithmic units in 14 days with respect to the initial population;
no increase in microbial growth after 14 days and up to the 28th day, when the test is stopped;
as §5

Aspergillus niger = assay: Preservative efficacy test (Pharmacopée Française), fungicidal effect on Aspergillus niger; settings: concentration of 5%
Procedure: as §1, §2, §3, §4, §5

In the case of `CCCCO[C@H]1O[C@H](CO)[C@@H](O)[C@H](O)[C@H]1O` [α-BG, α-butylglucoside], the “compliance with fungicidal standards” value [1] is reported as “satisfy the fungicidal standards”, the “compliance with bactericidal standards of the Pharmacopée Française” value ([2]; concentrations above 1%) is reported as “corresponds to the bactericidal standards” and the “logarithmic reduction (bactericidal effect)” value ([2]; concentrations above 1% (1% to 5%), after 14 days) is reported as “more than 3 logarithmic units”. The “increase in the number of strains after 14 days” value ([2]; concentrations above 1%, after 14 days) was “no subsequent increase in the number of strains”, the “reduction in the number of germs” value ([2]; concentrations of less than 0.8%) was “small reduction in the number of germs” and the “fungicidal activity on Aspergillus niger at 5% versus lower concentrations” value (Aspergillus niger) was “less active than at lower concentrations”.
